According to patent US6274715A, “Tricyclic erythromycin derivatives” (priority 1997, dated 2001):
≈ marks a conversion by molar mass, not a printed value.

Legend:
Assay type in all cases: cell-based
ESCHERICHIA COLI JUHL = conditions: E. coli JUHL; BHI agar; unit assumed
[1] = tested on: PSEUDOMONAS AERUGINOSA DPHD-5263; assay: In vitro antibacterial activity, MIC, BHI agar dilution; conditions: P. aeruginosa DPHD-5263, unit assumed
[2] = tested on: STREPTOCOCCUS BOVIS A-5169; assay: as above; conditions: S. bovis A-5169, unit assumed
[3] = tested on: KLEBSIELLA PNEUMONIAE ATCC 8045; assay: as above; conditions: K. pneumoniae ATCC 8045, unit assumed
[4] = tested on: PSEUDOMONAS AERUGINOSA BMH10; assay: as above; conditions: P. aeruginosa BMH10, unit assumed
ESCHERICHIA COLI KNK 437 = conditions: E. coli KNK 437; BHI agar; unit assumed
[5] = tested on: PSEUDOMONAS AERUGINOSA DPHD-2862; assay: In vitro antibacterial activity, MIC, BHI agar dilution; conditions: P. aeruginosa DPHD-2862, unit assumed
[6] = tested on: STREPTOCOCCUS PYOGENES PIU 2548; assay: as above; conditions: S. pyogenes PIU 2548, unit assumed
[7] = tested on: ACINETOBACTER CALCOACETICUS CMX 669; assay: as above; conditions: A. calcoaceticus CMX 669, unit assumed
[8] = tested on: ENTEROBACTER AEROGENES ATCC 13048; assay: as above; conditions: E. aerogenes ATCC 13048, unit assumed
PSEUDOMONAS CEPACIA 296I = assay: as above; conditions: P. cepacia 296I, unit assumed
ESCHERICHIA COLI H560 = assay: as above; conditions: E. coli H560, unit assumed
[9] = tested on: MYCOBACTERIUM SMEGMATIS ATCC 114; assay: as above; conditions: M. smegmatis ATCC 114, unit assumed
[10] = tested on: STAPHYLOCOCCUS EPIDERMIDIS 3519; conditions: S. epidermidis 3519; BHI agar; unit assumed
[11] = tested on: STAPHYLOCOCCUS AUREUS NCTC10649M; assay: In vitro antibacterial activity, MIC, BHI agar dilution; conditions: S. aureus NCTC10649M, unit assumed
[12] = tested on: PSEUDOMONAS AERUGINOSA K799/WT; assay: as above; conditions: P. aeruginosa K799/WT, unit assumed
CANDIDA ALBICANS CCH 442 = assay: as above; conditions: C. albicans CCH 442, unit assumed
[13] = tested on: PSEUDOMONAS AERUGINOSA 5007; assay: as above; conditions: P. aeruginosa 5007, unit assumed
[14] = tested on: STAPHYLOCOCCUS AUREUS A-5278; assay: as above; conditions: S. aureus A-5278, unit assumed
[15] = tested on: STAPHYLOCOCCUS AUREUS ATCC 6538P; assay: as above; conditions: S. aureus ATCC 6538P, 35-37° C., 20 to 24 hours, unit assumed
[16] = tested on: STAPHYLOCOCCUS AUREUS CMX 642A; assay: as above; conditions: S. aureus CMX 642A, unit assumed
[17] = tested on: STREPTOCOCCUS PYOGENES 930; assay: as above; conditions: S. pyogenes 930, unit assumed
[18] = tested on: PROVIDENCIA STUARTII CMX 640; conditions: P. stuartii CMX 640; BHI agar; unit assumed
[19] = tested on: PSEUDOMONAS AERUGINOSA K799/61; assay: In vitro antibacterial activity, MIC, BHI agar dilution; conditions: P. aeruginosa K799/61, unit assumed
M[…] ATCC 9341 = assay: as above; conditions: M. luteus ATCC 9341, unit assumed
In short: (§1)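 MIC was read visually as the lowest drug concentration showing no growth, a slight haze or sparsely isolated colonies relative to a compound-free BHI plate. Plates held serial aqueous dilutions in BHI agar, were spot-inoculated with 1:100 (or 1:10) culture dilutions and incubated 20 to 24 hours at 35-37° C.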

EN[…] ATCC 8043 = assay: as above; conditions: E. faecium ATCC 8043, unit assumed
In short: as §1

STR[…] 508 = assay: as above; conditions: S. agalactiae CMX 508, unit assumed
In short: as §1

[20] = tested on: STAPHYLOCOCCUS AUREUS 1775; assay: as above; conditions: S. aureus 1775, unit assumed
ESCHERICHIA COLI DC-2 = assay: as above; conditions: E. coli DC-2, unit assumed
[21] = tested on: STAPHYLOCOCCUS AUREUS CMX 553; assay: as above; conditions: S. aureus CMX 553, unit assumed
[22] = tested on: STAPHYLOCOCCUS AUREUS A5177; assay: as above; conditions: S. aureus A5177, unit assumed
M[…] ATCC 4698 = assay: as above; conditions: M. luteus ATCC 4698, unit assumed
In short: as §1

ESCHERICHIA COLI SS = assay: as above; conditions: E. coli SS, unit assumed
[23] = tested on: STREPTOCOCCUS PYOGENES EES61; assay: as above; conditions: S. pyogenes EES61, unit assumed

SMILES	MIC [1] [µg/mL]	MIC [2] [µg/mL]	MIC [3] [µg/mL]	MIC [4] [µg/mL]	MIC (ESCHERICHIA COLI KNK 437) [µg/mL]	MIC [5] [µg/mL]	MIC [7] [µg/mL]	MIC [8] [µg/mL]	MIC (PSEUDOMONAS CEPACIA 296I) [µg/mL]	MIC (ESCHERICHIA COLI H560) [µg/mL]	MIC [9] [µg/mL]	MIC [10] [µg/mL]	MIC [11] [µg/mL]	MIC [12] [µg/mL]	MIC (CANDIDA ALBICANS CCH 442) [µg/mL]	MIC [13] [µg/mL]	MIC [14] [µg/mL]	MIC [15] [µg/mL]	MIC [16] [µg/mL]	MIC [17] [µg/mL]	further results
CC[C@H]1OC(=O)[C@H](C)C(=O)[C@H](C)[C@@H](O[C@@H]2O[C@H](C)C[C@H](N(C)C)[C@H]2O)[C@](C)(OC)C[C@@H](C)C2=NC[C@@H](CCCc3ccccc3)N3C(=O)O[C@@]1(C)[C@H]3[C@H]2C [Example 36]	50 (≈ 66.1 µM)	0.01 (≈ 0.0132 µM)	50 (≈ 66.1 µM)	50 (≈ 66.1 µM)	12.5 (≈ 16.5 µM)	50 (≈ 66.1 µM)	50 (≈ 66.1 µM)	25 (≈ 33.1 µM)	50 (≈ 66.1 µM)	25 (≈ 33.1 µM)	0.39 (≈ 0.516 µM)	0.2 (≈ 0.265 µM)	0.2 (≈ 0.265 µM)	50 (≈ 66.1 µM)	100 (≈ 132 µM)	100 (≈ 132 µM)	> 100	0.2 (≈ 0.265 µM)	0.2 (≈ 0.265 µM)	50 (≈ 66.1 µM)	MIC (ESCHERICHIA COLI JUHL): 50 µg/mL (≈ 66.1 µM); MIC [6]: 0.39 µg/mL (≈ 0.516 µM); MIC [18]: 100 µg/mL (≈ 132 µM); MIC [19]: 1.56 µg/mL (≈ 2.06 µM); MIC (M[…] ATCC 9341): 0.05 µg/mL (≈ 0.0661 µM); MIC (EN[…] ATCC 8043): 0.2 µg/mL (≈ 0.265 µM); MIC (STR[…] 508): 0.05 µg/mL (≈ 0.0661 µM); MIC [20]: > 100 µg/mL
CC[C@H]1OC(=O)[C@H](C)C(=O)[C@H](C)[C@@H](O[C@@H]2O[C@H](C)C[C@H](N(C)C)[C@H]2O)[C@](C)(OC)C[C@@H](C)C2=NC[C@H](CO)N3C(=O)O[C@@]1(C)[C@H]3[C@H]2C [Example 63]	> 100	0.05 (≈ 0.0749 µM)	> 100	> 100	> 100	> 100	100 (≈ 150 µM)	> 100	> 100	50 (≈ 74.9 µM)	6.2 (≈ 9.28 µM)	0.78 (≈ 1.17 µM)	0.78 (≈ 1.17 µM)	> 100	> 100	> 100	> 100	0.78 (≈ 1.17 µM)	1.56 (≈ 2.34 µM)	> 100	MIC (ESCHERICHIA COLI DC-2): > 100 µg/mL; MIC [21]: 1.56 µg/mL (≈ 2.34 µM); MIC [22]: 0.78 µg/mL (≈ 1.17 µM); MIC [18]: > 100 µg/mL; MIC (M[…] ATCC 9341): 0.2 µg/mL (≈ 0.299 µM); MIC (EN[…] ATCC 8043): 0.2 µg/mL (≈ 0.299 µM); MIC (STR[…] 508): 0.2 µg/mL (≈ 0.299 µM); MIC (M[…] ATCC 4698): 0.78 µg/mL (≈ 1.17 µM); MIC (ESCHERICHIA COLI SS): 0.78 µg/mL (≈ 1.17 µM); MIC [20]: > 100 µg/mL; MIC [23]: 0.1 µg/mL (≈ 0.15 µM)
CC[C@H]1OC(=O)[C@H](C)C(=O)[C@H](C)[C@@H](O[C@@H]2O[C@H](C)C[C@H](N(C)C)[C@H]2O)[C@](C)(OC)C[C@@H](C)C2=N[C@H](COCc3ccccc3Cl)CN3C(=O)O[C@@]1(C)[C@H]3[C@H]2C [Example 78]	> 100	≤ 0.005	> 100	> 100	> 100	> 100	100 (≈ 126 µM)	> 100	> 100	> 100	0.78 (≈ 0.984 µM)	0.39 (≈ 0.492 µM)	0.39 (≈ 0.492 µM)	> 100	100 (≈ 126 µM)	> 100	100 (≈ 126 µM)	0.39 (≈ 0.492 µM)	0.78 (≈ 0.984 µM)	25 (≈ 31.5 µM)	MIC (ESCHERICHIA COLI JUHL): > 100 µg/mL; MIC (ESCHERICHIA COLI DC-2): > 100 µg/mL; MIC [21]: 0.78 µg/mL (≈ 0.984 µM); MIC [6]: 0.2 µg/mL (≈ 0.252 µM); MIC [18]: > 100 µg/mL; MIC [19]: 3.1 µg/mL (≈ 3.91 µM); MIC (M[…] ATCC 9341): 0.02 µg/mL (≈ 0.0252 µM); MIC (EN[…] ATCC 8043): 0.05 µg/mL (≈ 0.0631 µM); MIC (STR[…] 508): ≤ 0.005 µg/mL; MIC (M[…] ATCC 4698): 0.39 µg/mL (≈ 0.492 µM); MIC (ESCHERICHIA COLI SS): 1.56 µg/mL (≈ 1.97 µM); MIC [20]: 100 µg/mL (≈ 126 µM); MIC [23]: ≤ 0.005 µg/mL
